Results reported in US12077503B2, “Substituted cyclic amides and their use as herbicides” (FMC CORPORATION, priority 2015, dated 2024).

Columns and labels:
Format in all cases: in vivo
[1] = system: Galium (catchweed bedstraw, Galium aparine); assay: Test C preemergence; conditions: for Plant response rating, Galium: scale 0 to 100, 0 no effect, 100 complete control
In short: (§1)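 Herbicidal effect, applied preemergence to sown seeds or postemergence to 1- to 4-leaf plants, was scored visually 13 to 15 d after application, 0 to 100 versus controls.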

[2] = system: barnyardgrass (Echinochloa crus-galli); assay: Test C preemergence; conditions: for Plant response rating, Barnyardgrass: scale 0 to 100, 0 no effect, 100 complete control
In short: as §1

[3] = system: blackgrass (Alopecurus myosuroides); assay: Test C preemergence; conditions: for Plant response rating, Blackgrass: scale 0 to 100, 0 no effect, 100 complete control
In short: as §1

[4] = system: corn (Zea mays); assay: Test C preemergence; conditions: for Plant response rating, Corn: scale 0 to 100, 0 no effect, 100 complete control
In short: as §1

[5] = system: crabgrass, large (large crabgrass, Digitaria sanguinalis); assay: Test C preemergence; conditions: for Plant response rating, Crabgrass, Large: scale 0 to 100, 0 no effect, 100 complete control
In short: as §1

[6] = system: foxtail, giant (giant foxtail, Setaria faberii); assay: Test C preemergence; conditions: for Plant response rating, Foxtail, Giant: scale 0 to 100, 0 no effect, 100 complete control
In short: as §1

[7] = system: johnsongrass (Sorghum halepense); assay: Test C preemergence; conditions: for Plant response rating, Johnsongrass: scale 0 to 100, 0 no effect, 100 complete control
In short: as §1

[8] = system: lambsquarters (Chenopodium album); assay: Test C preemergence; conditions: for Plant response rating, Lambsquarters: scale 0 to 100, 0 no effect, 100 complete control
In short: as §1

[9] = system: morningglory (Ipomoea coccinea); assay: Test C preemergence; conditions: for Plant response rating, Morningglory: scale 0 to 100, 0 no effect, 100 complete control
In short: as §1

[10] = system: nutsedge, yellow (yellow nutsedge, Cyperus esculentus); assay: Test C preemergence; conditions: for Plant response rating, Nutsedge, Yellow: scale 0 to 100, 0 no effect, 100 complete control
In short: as §1

[11] = system: oilseed rape (Brassica napus); assay: Test C preemergence; conditions: for Plant response rating, Oilseed Rape: scale 0 to 100, 0 no effect, 100 complete control
In short: as §1

[12] = system: pigweed (Amaranthus retroflexus); assay: Test C preemergence; conditions: for Plant response rating, Pigweed: scale 0 to 100, 0 no effect, 100 complete control
In short: as §1

[13] = system: ragweed (common ragweed, Ambrosia elatior); assay: Test C preemergence; conditions: for Plant response rating, Ragweed: scale 0 to 100, 0 no effect, 100 complete control
In short: as §1

[14] = system: ryegrass, Italian (Italian ryegrass, Lolium multiflorum); assay: Test C preemergence; conditions: for Plant response rating, Ryegrass, Italian: scale 0 to 100, 0 no effect, 100 complete control
In short: as §1

[15] = system: soybean (Glycine max); assay: Test C preemergence; conditions: for Plant response rating, Soybean: scale 0 to 100, 0 no effect, 100 complete control
In short: as §1

[16] = system: velvetleaf (Abutilon theophrasti); assay: Test C preemergence; conditions: for Plant response rating, Velvetleaf: scale 0 to 100, 0 no effect, 100 complete control
In short: as §1

[17] = system: waterhemp (common waterhemp, Amaranthus rudis); assay: Test C preemergence; conditions: for Plant response rating, Waterhemp: scale 0 to 100, 0 no effect, 100 complete control
In short: as §1

[18] = system: wheat (winter wheat, Triticum aestivum); assay: Test C preemergence; conditions: for Plant response rating, Wheat: scale 0 to 100, 0 no effect, 100 complete control
In short: as §1

[19] = system: ducksalad (Heteranthera limosa); assay: Test C flooded paddy test; conditions: Flood, 0 is no effect, 100 is complete control
In short: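 Plants grown to the 2-leaf stage in pots flooded to 3 cm above soil; compounds applied directly into the paddy water, depth held throughout. After 13 to 15 d in greenhouse, injury visually rated against untreated controls on a 0–100 scale (0 no effect, 100 complete control).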

[20] = 31 g ai/ha, 0 is no effect, 100 is complete control

## CN1CC(c2ccc(F)c(C(F)(F)F)c2)C(C(=O)Nc2ccccc2S(C)(=O)=O)C1=O (stereo not shown) [Compound 612]
[1]; [20]
  Plant response rating (scale of 0 to 100), Galium: 80
[1]; 62 g ai/ha
  Plant response rating, Galium: 0
[1]; 125 g ai/ha
  Plant response rating, Galium: 90
[1]; 250 g ai/ha
  Plant response rating, Galium: 90
[2]; [20]
  Plant response rating (scale of 0 to 100), Barnyardgrass: 85
[2]; 62 g ai/ha
  Plant response rating, Barnyardgrass: 95
[2]; 125 g ai/ha
  Plant response rating, Barnyardgrass: 95
[2]; 250 g ai/ha
  Plant response rating, Barnyardgrass: 98
[3]; [20]
  Plant response rating (scale of 0 to 100), Blackgrass: 70
[3]; 62 g ai/ha
  Plant response rating, Blackgrass: 90
[3]; 125 g ai/ha
  Plant response rating, Blackgrass: 90
[3]; 250 g ai/ha
  Plant response rating, Blackgrass: 95
[4]; [20]
  Plant response rating (scale of 0 to 100), Corn: 40
[4]; 62 g ai/ha
  Plant response rating, Corn: 30
[4]; 125 g ai/ha
  Plant response rating, Corn: 65
[4]; 250 g ai/ha
  Plant response rating, Corn: 70
[5]; [20]
  Plant response rating (scale of 0 to 100), Crabgrass, Large: 98
[5]; 62 g ai/ha
  Plant response rating, Crabgrass, Large: 95
[5]; 125 g ai/ha
  Plant response rating, Crabgrass, Large: 98
[5]; 250 g ai/ha
  Plant response rating, Crabgrass, Large: 100
[6]; [20]
  Plant response rating (scale of 0 to 100), Foxtail, Giant: 90
[6]; 62 g ai/ha
  Plant response rating, Foxtail, Giant: 90
[6]; 125 g ai/ha
  Plant response rating, Foxtail, Giant: 95
[6]; 250 g ai/ha
  Plant response rating, Foxtail, Giant: 95
[7]; [20]
  Plant response rating (scale of 0 to 100), Johnsongrass: 40
[7]; 62 g ai/ha
  Plant response rating, Johnsongrass: 60
[7]; 125 g ai/ha
  Plant response rating, Johnsongrass: 85
[7]; 250 g ai/ha
  Plant response rating, Johnsongrass: 90
[8]; [20]
  Plant response rating (scale of 0 to 100), Lambsquarters: 45
[8]; 62 g ai/ha
  Plant response rating, Lambsquarters: 45
[8]; 125 g ai/ha
  Plant response rating, Lambsquarters: 40
[8]; 250 g ai/ha
  Plant response rating, Lambsquarters: 70
[9]; [20]
  Plant response rating (scale of 0 to 100), Morningglory: 0
[9]; 62 g ai/ha
  Plant response rating, Morningglory: 0
[9]; 125 g ai/ha
  Plant response rating, Morningglory: 25
[9]; 250 g ai/ha
  Plant response rating, Morningglory: 55
[10]; [20]
  Plant response rating (scale of 0 to 100), Nutsedge, Yellow: 0
[10]; 62 g ai/ha
  Plant response rating, Nutsedge, Yellow: 0
[10]; 125 g ai/ha
  Plant response rating, Nutsedge, Yellow: 25
[10]; 250 g ai/ha
  Plant response rating, Nutsedge, Yellow: 35
[11]; [20]
  Plant response rating (scale of 0 to 100), Oilseed Rape: 30
[11]; 62 g ai/ha
  Plant response rating, Oilseed Rape: 50
[11]; 125 g ai/ha
  Plant response rating, Oilseed Rape: 70
[11]; 250 g ai/ha
  Plant response rating, Oilseed Rape: 90
[12]; [20]
  Plant response rating (scale of 0 to 100), Pigweed: 60
[12]; 62 g ai/ha
  Plant response rating, Pigweed: 80
[12]; 125 g ai/ha
  Plant response rating, Pigweed: 90
[12]; 250 g ai/ha
  Plant response rating, Pigweed: 90
[13]; [20]
  Plant response rating (scale of 0 to 100), Ragweed: 10
[13]; 62 g ai/ha
  Plant response rating, Ragweed: 10
[13]; 125 g ai/ha
  Plant response rating, Ragweed: 55
[13]; 250 g ai/ha
  Plant response rating, Ragweed: 65
[14]; [20]
  Plant response rating (scale of 0 to 100), Ryegrass, Italian: 20
[14]; 62 g ai/ha
  Plant response rating, Ryegrass, Italian: 40
[14]; 125 g ai/ha
  Plant response rating, Ryegrass, Italian: 50
[14]; 250 g ai/ha
  Plant response rating, Ryegrass, Italian: 80
[15]; [20]
  Plant response rating (scale of 0 to 100), Soybean: 0
[15]; 62 g ai/ha
  Plant response rating, Soybean: 0
[15]; 125 g ai/ha
  Plant response rating, Soybean: 10
[15]; 250 g ai/ha
  Plant response rating, Soybean: 0
[16]; [20]
  Plant response rating (scale of 0 to 100), Velvetleaf: 0
[16]; 62 g ai/ha
  Plant response rating, Velvetleaf: 10
[16]; 125 g ai/ha
  Plant response rating, Velvetleaf: 30
[16]; 250 g ai/ha
  Plant response rating, Velvetleaf: 60
[17]; [20]
  Plant response rating (scale of 0 to 100), Waterhemp: 75
[17]; 62 g ai/ha
  Plant response rating, Waterhemp: 85
[17]; 125 g ai/ha
  Plant response rating, Waterhemp: 90
[17]; 250 g ai/ha
  Plant response rating, Waterhemp: 95
[18]; [20]
  Plant response rating (scale of 0 to 100), Wheat: 20
[18]; 62 g ai/ha
  Plant response rating, Wheat: 55
[18]; 125 g ai/ha
  Plant response rating, Wheat: 25
[18]; 250 g ai/ha
  Plant response rating, Wheat: 90
[19]; 31 g ai/ha
  Plant response rating (scale of 0 to 100), Ducksalad: 0
[19]; 62 g ai/ha
  Plant response rating (scale of 0 to 100), Ducksalad: 0
[19]; 125 g ai/ha
  Plant response rating (scale of 0 to 100), Ducksalad: 0
[19]; 250 g ai/ha
  Plant response rating (scale of 0 to 100), Ducksalad: 55
